Measurements taken from patent publication US12528778B2, “Microbiocidal derivatives” (SYNGENTA CROP PROTECTION AG, priority 2019, dated 2026).

How the values were obtained:
[1] = tested on: Mycosphaerella graminicola (Septoria tritici); test: Mycosphaerella graminicola (Septoria tritici) / liquid culture (Septoria blotch); assay type: cell-based; settings: Zymoseptoria tritici, PDB liquid culture, 24° C., growth inhibition determined photometrically 4-5 days after application, vs untreated control
Experimental: Example B12: Mycosphaerella graminicola (Septoria tritici)/Liquid Culture (Septoria Blotch) Conidia of the fungus from cryogenic storage are directly mixed into nutrient broth (PDB potato dextrose broth). After placing a (DMSO) solution of test compound into a microtiter plate (96-well format), the nutrient broth containing the fungal spores is added. The test plates are incubated at 24° C. and the inhibition of growth is determined photometrically 4-5 days after application. […] […]-48, and P-49.

[2] = tested on: Monographella nivalis (Microdochium nivale); test: Monographella nivalis (Microdochium nivale) / liquid culture (foot rot cereals); assay type: cell-based; settings: PDB liquid culture, 24° C., growth inhibition determined photometrically 4-5 days after application, vs untreated control
Experimental: Example B5: Monographella nivalis (Microdochium nivale)/Liquid Culture (Foot Rot Cereals) Conidia of the fungus from cryogenic storage are directly mixed into nutrient broth (PDB potato dextrose broth). After placing a (DMSO) solution of test compound into a microtiter plate (96-well format), the nutrient broth containing the fungal spores is added. The test plates are incubated at 24° C. and the inhibition of growth is determined photometrically 4-5 days after application. […] […]-49, and P-50.

[3] = tested on: Glomerella lagenarium (Colletotrichum lagenarium); test: Glomerella lagenarium (Colletotrichum lagenarium) / liquid culture (anthracnose); assay type: cell-based; settings: Colletotrichum orbiculare, PDB liquid culture, 24° C., growth inhibition measured photometrically 3-4 days after application, vs untreated control
Experimental: Example B2: Glomerella lagenarium (Colletotrichum lagenarium)/Liquid Culture (Anthracnose) Conidia of the fungus from cryogenic storage are directly mixed into nutrient broth (PDB potato dextrose broth). After placing a (DMSO) solution of test compound into a microtiter plate (96-well format), the nutrient broth containing the fungal spores is added. The test plates are incubated at 24° C. and the inhibition of growth is measured photometrically 3-4 days after application. […] […]-49, and P-50.

[4] = tested on: Mycosphaerella arachidis (Cercospora arachidicola); test: Mycosphaerella arachidis (Cercospora arachidicola) / liquid culture (early leaf spot); assay type: cell-based; settings: PDB liquid culture, 24° C., growth inhibition determined photometrically 4-5 days after application, vs untreated control
Experimental: Example B6: Mycosphaerella arachidis (Cercospora arachidicola)/Liquid Culture (Early Leaf Spot) Conidia of the fungus from cryogenic storage are directly mixed into nutrient broth (PDB potato dextrose broth). After placing a (DMSO) solution of test compound into a microtiter plate (96-well format), the nutrient broth containing the fungal spores is added. The test plates are incubated at 24° C. and the inhibition of growth is determined photometrically 4-5 days after application. […] […]-44, and P-48.

[5] = tested on: Puccinia recondita f. sp. tritici; test: Puccinia recondita f. sp. tritici / wheat / leaf disc preventative (brown rust); assay type: in vivo; settings: foliar, wheat leaf segments cv. Kanzler, inoculated 1 day after application, assessed 7-9 days after application, vs untreated control
Experimental: Example B8: Puccinia recondita f. sp. tritici/Wheat/Leaf Disc Preventative (Brown rust) Wheat leaf segments cv. Kanzler are placed on agar in multiwell plates (24-well format) and sprayed with the formulated test compound diluted in water. The leaf disks are inoculated with a spore suspension of the fungus 1 day after application. The inoculated leaf segments are incubated at 19° C. and 75% rh under a light regime of 12 h light/12 h darkness in a climate cabinet and the activity of a compound is assessed as percent disease control compared to untreated when an appropriate level of disease damage appears in untreated check leaf segments (7-9 days after application).

Alternaria solani = Alternaria solani / tomato / leaf disc (early blight); assay type: in vivo; settings: foliar, tomato leaf disks cv. Baby, inoculated 2 days after application, assessed 5-7 days after application, vs untreated control
Experimental: Example B1: Alternaria solani/Tomato/Leaf Disc (Early Blight) Tomato leaf disks cv. Baby are placed on agar in multiwell plates (24-well format) and sprayed with the formulated test compound diluted in water. The leaf disks are inoculated with a spore suspension of the fungus 2 days after application. The inoculated leaf disks are incubated at 23° C./21° C. […] […]-43, and P-44.

[6] = tested on: Blumeria graminis f. sp. tritici (Erysiphe graminis f. sp. tritici); test: Blumeria graminis f. sp. tritici / wheat / leaf disc preventative (powdery mildew on wheat); assay type: in vivo; settings: foliar, wheat leaf segments cv. Kanzler, inoculated 1 day after application, assessed 6-8 days after application, vs untreated control
Experimental: Example B3: Blumeria graminis f. sp. tritici (Erysiphe graminis f. so. tritici)/Wheat/Leaf Disc Preventative (Powdery Mildew on Wheat) Wheat leaf segments cv. Kanzler are placed on agar in a multiwell plate (24-well format) and sprayed with the formulated test compound diluted in water. The leaf disks are inoculated by shaking powdery mildew infected plants above the test plates 1 day after application. The inoculated leaf disks are incubated at 20°° C. and 60% rh under a light regime of 24 h darkness followed by 12 h light/12 h darkness in a climate chamber and the activity of a compound is assessed as percent disease control compared to untreated when an appropriate level of disease damage appears on untreated check leaf segments (6-8 days after application). […]-45, and P-50.

[7] = tested on: Magnaporthe grisea (Pyricularia oryzae); test: whole plant or invertebrate; assay type: in vivo; settings: foliar, read-out: control of Magnaporthe grisea

COc1ncc(NC2CCCC2)nc1C(=O)NC1CCC1(C)C (stereo not shown) [Compound P-1, 6-(cyclopentylamino)-N-(2,2-dimethylcyclobutyl)-3-methoxy-pyrazine-2-carboxamide]
≥ 80%: inhibition of growth at 20 ppm [1] | inhibition of growth at 20 ppm [2] | inhibition of growth at 20 ppm [3] | inhibition of growth at 20 ppm [4]

COc1ncc(Nc2ccccc2)nc1C(=O)NC1CCC1(C)C (stereo not shown) [Compound P-4, 6-anilino-N-(2,2-dimethylcyclobutyl)-3-methoxy-pyrazine-2-carboxamide]
≥ 80%: pest or weed control at 200 ppm [5] | inhibition of growth at 20 ppm [1] | inhibition of growth at 20 ppm [2] | inhibition of growth at 20 ppm [3] | pest or weed control at 200 ppm (Alternaria solani) | inhibition of growth at 20 ppm [4] | pest or weed control at 200 ppm [6]

COc1ncc(Nc2cnsc2)nc1C(=O)NCc1ccc(Oc2ccccc2)cc1 [Compound P-13, 6-(isothiazol-4-ylamino)-3-methoxy-N-[(4-phenoxyphenyl)methyl] pyrazine-2-carboxamide]
≥ 80%: inhibition of growth at 20 ppm [1] | inhibition of growth at 20 ppm [2] | pest or weed control at 200 ppm [7] | inhibition of growth at 20 ppm [3] | pest or weed control at 200 ppm (Alternaria solani) | inhibition of growth at 20 ppm [4]

COc1ncc(Nc2cc(F)cc(F)c2)nc1C(=O)NC1C2CCOC2C1(C)C (stereo not shown) [Compound P-16, 6-(3,5-difluoroanilino)-N-(7,7-dimethyl-2-oxabicyclo[3.2.0]heptan-6-yl)-3-methoxy-pyrazine-2-carboxamide]
≥ 80%: inhibition of growth at 20 ppm [1] | inhibition of growth at 20 ppm [2] | pest or weed control at 200 ppm [7] | inhibition of growth at 20 ppm [3] | pest or weed control at 200 ppm (Alternaria solani) | inhibition of growth at 20 ppm [4] | pest or weed control at 200 ppm [6]

COc1ncc(Nc2cc(F)cc(F)c2)nc1C(=O)NCC1(C)CCOC1 (stereo not shown) [Compound P-21]
≥ 80%: inhibition of growth at 20 ppm [1] | inhibition of growth at 20 ppm [2] | pest or weed control at 200 ppm [7] | inhibition of growth at 20 ppm [3] | pest or weed control at 200 ppm [6]

COc1ncc(Nc2cc(F)cc(F)c2)nc1C(=O)NC1COC(C2CC2)C1 (stereo not shown) [Compound P-24, N-(5-cyclopropyltetrahydrofuran-3-yl)-6-(3,5-difluoroanilino)-3-methoxy-pyrazine-2-carboxamide]
≥ 80%: inhibition of growth at 20 ppm [1] | inhibition of growth at 20 ppm [2] | inhibition of growth at 20 ppm [3] | inhibition of growth at 20 ppm [4] | pest or weed control at 200 ppm [6]

COc1ncc(Nc2cc(F)cc(F)c2)nc1C(=O)NC1CC2CCOC21 (stereo not shown) [Compound P-28, 6-(3,5-difluoroanilino)-3-methoxy-N-(2-oxabicyclo[3.2.0]heptan-7-yl)pyrazine-2-carboxamide]
≥ 80%: pest or weed control at 200 ppm [7] | inhibition of growth at 20 ppm [3] | pest or weed control at 200 ppm (Alternaria solani) | pest or weed control at 200 ppm [6]

COc1ncc(Nc2cc(F)cc(F)c2)nc1C(=O)NCc1cccc2c1OC(F)(F)O2 [Compound P-29, 6-(3,5-difluoroanilino)-N-[(2,2-difluoro-1.3-benzodioxol-4-yl)methyl]-3-methoxy-pyrazine-2-carboxamide]
≥ 80%: pest or weed control at 200 ppm [5] | inhibition of growth at 20 ppm [1] | inhibition of growth at 20 ppm [2] | pest or weed control at 200 ppm [7] | inhibition of growth at 20 ppm [3] | inhibition of growth at 20 ppm [4]

COc1ncc(Nc2cc(F)cc(F)c2)nc1C(=O)NCc1ccc(Oc2ccccc2)cc1 [Compound P-30]
≥ 80%: inhibition of growth at 20 ppm [1] | inhibition of growth at 20 ppm [2] | pest or weed control at 200 ppm [7] | inhibition of growth at 20 ppm [3] | pest or weed control at 200 ppm (Alternaria solani) | inhibition of growth at 20 ppm [4] | pest or weed control at 200 ppm [6]

COc1ncc(Nc2cc(F)nc(F)c2)nc1C(=O)NCC1(C)CCOC2(CCC2)C1 (stereo not shown) [Compound P-34]
≥ 80%: pest or weed control at 200 ppm [5] | pest or weed control at 200 ppm [7] | inhibition of growth at 20 ppm [3]

COc1ncc(Nc2cc(F)nc(F)c2)nc1C(=O)NCC1(C(F)(F)F)CC1 [Compound P-35, 6-[(2,6-difluoro-4-pyridyl)amino]-3-methoxy-N-[[1-(trifluoromethyl)cyclopropyl]methyl] pyrazine-2-carboxamide]
≥ 80%: pest or weed control at 200 ppm [7] | inhibition of growth at 20 ppm [3] | pest or weed control at 200 ppm [6]

COc1ncc(Nc2cc(F)cc(F)c2)nc1C(=O)NC1(C)CC1 [Compound P-37, 6-(3,5-difluoroanilino)-3-methoxy-N-(1-methylcyclopropyl) pyrazine-2-carboxamide]
≥ 80%: pest or weed control at 200 ppm [5] | inhibition of growth at 20 ppm [1] | inhibition of growth at 20 ppm [2] | pest or weed control at 200 ppm [7] | inhibition of growth at 20 ppm [3] | pest or weed control at 200 ppm (Alternaria solani) | pest or weed control at 200 ppm [6]

COc1ncc(Nc2cc(F)cc(F)c2)nc1C(=O)NC(C)CCCC(C)C (stereo not shown) [Compound P-40, 6-(3,5-difluoroanilino)-N-(1,5-dimethylhexyl)-3-methoxy-pyrazine-2-carboxamide]
≥ 80%: pest or weed control at 200 ppm [5] | inhibition of growth at 20 ppm [1] | inhibition of growth at 20 ppm [2] | pest or weed control at 200 ppm [7] | inhibition of growth at 20 ppm [3] | inhibition of growth at 20 ppm [4] | pest or weed control at 200 ppm [6]

CC1(NC(=O)c2cncc(Nc3cc(F)cc(F)c3)n2)CCCC1 [Compound P-48, 6-(3,5-difluoroanilino)-N-(1-methylcyclopentyl) pyrazine-2-carboxamide]
≥ 80%: inhibition of growth at 20 ppm [1] | inhibition of growth at 20 ppm [2] | inhibition of growth at 20 ppm [3] | inhibition of growth at 20 ppm [4]

Cc1ncc(Nc2cc(F)nc(F)c2)nc1C(=O)NC1CCC1(C)C (stereo not shown) [Compound P-50, 6-[(2,6-difluoro-4-pyridyl)amino]-N-(2,2-dimethylcyclobutyl)-3-methyl-pyrazine-2-carboxamide]
≥ 80%: inhibition of growth at 20 ppm [2] | pest or weed control at 200 ppm [7] | inhibition of growth at 20 ppm [3] | pest or weed control at 200 ppm [6]
